Measurements as given in US8198268B2, “Tianeptine sulfate salt forms and methods of making and using the same” (Janssen Biotech, Inc., priority 2008, dated 2012).

Test system: mouse
Experiment: Behavioral despair test in mouse (forced swim test), IP administration
[1] = STUDY A, 150 mg/kg i.p. 30 min prior to testing, hemisulfate monohydrate, 150 mg/kg
[2] = STUDY A, 150 mg/kg i.p. 30 min prior to testing, 150 mg/kg

CN1c2ccccc2C(NCCCCCCC(=O)O)c2ccc(Cl)cc2S1(=O)=O (stereo not shown) [tianeptine hemisulfate monohydrate, 7-[(3-chloro-6,11-dihydro-6-methyldibenzo[c,f][1,2]thiazepin-11-yl)amino]heptanoic acid S,S-dioxide hemisulfate monohydrate]
Duration of Immobility mean ± s.e.m. (STUDY A, 100 mg/kg i.p. 30 min prior to testing): 83.1 ± 21.2 s | Duration of Immobility % change from control (STUDY A, 100 mg/kg i.p. 30 min prior to testing, hemisulfate monohydrate, 100 mg/kg): −59% | Duration of Immobility % change from control [1]: −43% | Duration of Immobility mean ± s.e.m. [1]: 115.5 ± 13.6 s | Duration of Immobility mean ± s.e.m. (STUDY A, 200 mg/kg i.p. 30 min prior to testing): 108.8 ± 19.8 s | Duration of Immobility % change from control (STUDY A, 200 mg/kg i.p. 30 min prior to testing, hemisulfate monohydrate, 200 mg/kg): −46% | abnormal behavior prior to the test (STUDY B, 30 mg/kg and 60 mg/kg i.p.): abnormal behavior (including Straub tail and circling) was observed in all ten mice | Duration of Immobility mean ± s.e.m. (STUDY B, 30 mg/kg i.p. 30 min prior to testing): 25.8 ± 8.7 s | Duration of Immobility % change from control (STUDY B, 30 mg/kg i.p. 30 min prior to testing, hemisulfate monohydrate, 30 mg/kg): −86% | Duration of Immobility mean ± s.e.m. (STUDY B, 60 mg/kg i.p. 30 min prior to testing): 29.7 ± 9.7 s | Duration of Immobility % change from control (STUDY B, 60 mg/kg i.p. 30 min prior to testing, hemisulfate monohydrate, 60 mg/kg): −83% | conclusion of STUDIES A and B (dose-range 30 mg/kg-200 mg/kg i.p.): antidepressant-like activity

CN1c2ccccc2C(NCCCCCCC(=O)O)c2ccc(Cl)cc2S1(=O)=O (stereo not shown) [tianeptine sodium, reference compound]
Duration of Immobility % change from control [2]: −50% | Duration of Immobility mean ± s.e.m. [2]: 102.0 ± 13.0 s

CN(C)CCCN1c2ccccc2CCc2ccccc21 [Imipramine, reference compound]
Duration of Immobility mean ± s.e.m. (STUDY A, 32 mg/kg i.p. 30 min prior to testing): 64.1 ± 16.1 s | Duration of Immobility % change from control (STUDY A, 32 mg/kg i.p. 30 min prior to testing, 32 mg/kg): −68% | Duration of Immobility % change from control (STUDY A, 32 mg/kg i.p. 30 min prior to testing, listed as imipramine hydrochloride, 32 mg/kg): −68% | Duration of Immobility % change from control (STUDY B, 32 mg/kg i.p. 30 min prior to testing, 32 mg/kg): −88% | Duration of Immobility % change from control (STUDY B, 32 mg/kg i.p. 30 min prior to testing, listed as imipramine hydrochloride, 32 mg/kg): −88%
